The results in this text go back to ChEMBL document CHEMBL4507268 (2021).

Assay [1] concerns the target Sigma intracellular receptor 2 (Homo sapiens, UniProt Q5BJF2). Briefly: GPCRScan assay: inhibition of Sigma 2. More on the design: radioligand conc. used [nm] 5.0, parental cells HEKT.
Assay [2] deals with 5'-AMP-activated protein kinase catalytic subunit alpha-2 (Homo sapiens) (UniProt P54646). Particulars: Compound concentration 1.0 uM.
For assay [3], the target named is Calcium/calmodulin-dependent protein kinase type II subunit beta (Homo sapiens) (UniProt Q13554). The settings on record: Compound concentration 1.0 uM.
Assay [4] deals with CDK7/Cyclin H/MNAT1 (Homo sapiens) (UniProt P51946+P50613+P51948). The settings on record: Compound concentration 1.0 uM.
The target in assay [5] is Proto-oncogene tyrosine-protein kinase Src (Homo sapiens) (UniProt P12931). Particulars: Compound concentration 1.0 uM.
Sequence of Proto-oncogene tyrosine-protein kinase Src (Homo sapiens) (P12931 2-536 limits assumed): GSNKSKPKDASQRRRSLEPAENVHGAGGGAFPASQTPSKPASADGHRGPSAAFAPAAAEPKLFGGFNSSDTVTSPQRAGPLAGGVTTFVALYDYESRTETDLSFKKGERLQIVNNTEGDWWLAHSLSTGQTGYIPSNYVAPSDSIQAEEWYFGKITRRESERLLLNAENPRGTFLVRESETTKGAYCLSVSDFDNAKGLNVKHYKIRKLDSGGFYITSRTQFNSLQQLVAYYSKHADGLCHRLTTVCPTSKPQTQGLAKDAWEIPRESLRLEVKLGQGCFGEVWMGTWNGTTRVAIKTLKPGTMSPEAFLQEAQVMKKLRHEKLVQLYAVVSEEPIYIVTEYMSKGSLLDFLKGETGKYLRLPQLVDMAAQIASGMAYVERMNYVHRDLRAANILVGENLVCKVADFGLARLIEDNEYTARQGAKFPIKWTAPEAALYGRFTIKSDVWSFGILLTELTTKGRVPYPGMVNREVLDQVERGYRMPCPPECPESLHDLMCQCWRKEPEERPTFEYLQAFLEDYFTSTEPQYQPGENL
The target in assay [6] is Fibroblast growth factor receptor 4 (Homo sapiens) (UniProt P22455). Particulars: Compound concentration 1.0 uM.
Sequence of Fibroblast growth factor receptor 4 (Homo sapiens) (P22455 22-802 limits assumed): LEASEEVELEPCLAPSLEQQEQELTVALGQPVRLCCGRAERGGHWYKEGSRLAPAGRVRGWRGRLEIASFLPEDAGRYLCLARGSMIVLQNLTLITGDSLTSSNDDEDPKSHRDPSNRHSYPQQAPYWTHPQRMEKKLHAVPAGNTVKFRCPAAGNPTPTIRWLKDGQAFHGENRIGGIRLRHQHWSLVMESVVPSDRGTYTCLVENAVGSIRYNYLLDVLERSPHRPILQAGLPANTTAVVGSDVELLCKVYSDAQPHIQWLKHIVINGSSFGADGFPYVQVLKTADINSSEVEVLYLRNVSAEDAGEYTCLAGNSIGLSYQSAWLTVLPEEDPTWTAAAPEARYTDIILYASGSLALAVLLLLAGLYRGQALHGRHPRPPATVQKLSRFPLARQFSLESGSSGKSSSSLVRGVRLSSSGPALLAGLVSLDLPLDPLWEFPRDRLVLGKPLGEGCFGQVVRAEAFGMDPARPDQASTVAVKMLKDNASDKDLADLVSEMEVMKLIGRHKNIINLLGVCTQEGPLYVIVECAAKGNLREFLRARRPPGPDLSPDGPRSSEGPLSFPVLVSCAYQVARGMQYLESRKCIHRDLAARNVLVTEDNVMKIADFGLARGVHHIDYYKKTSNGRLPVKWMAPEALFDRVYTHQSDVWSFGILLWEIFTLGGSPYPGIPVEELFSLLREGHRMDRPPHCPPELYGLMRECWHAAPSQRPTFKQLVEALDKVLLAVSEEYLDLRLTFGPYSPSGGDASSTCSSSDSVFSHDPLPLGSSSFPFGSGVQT
Assay [7] has as its target Insulin receptor-related protein (Homo sapiens) (UniProt P14616). The settings on record: Compound concentration 1.0 uM.
The target of assay [8] is SRSF protein kinase 3 (Homo sapiens) (UniProt Q9UPE1). Particulars: Compound concentration 1.0 uM.
Sequence of SRSF protein kinase 3 (Homo sapiens) (Q9UPE1 whole entry): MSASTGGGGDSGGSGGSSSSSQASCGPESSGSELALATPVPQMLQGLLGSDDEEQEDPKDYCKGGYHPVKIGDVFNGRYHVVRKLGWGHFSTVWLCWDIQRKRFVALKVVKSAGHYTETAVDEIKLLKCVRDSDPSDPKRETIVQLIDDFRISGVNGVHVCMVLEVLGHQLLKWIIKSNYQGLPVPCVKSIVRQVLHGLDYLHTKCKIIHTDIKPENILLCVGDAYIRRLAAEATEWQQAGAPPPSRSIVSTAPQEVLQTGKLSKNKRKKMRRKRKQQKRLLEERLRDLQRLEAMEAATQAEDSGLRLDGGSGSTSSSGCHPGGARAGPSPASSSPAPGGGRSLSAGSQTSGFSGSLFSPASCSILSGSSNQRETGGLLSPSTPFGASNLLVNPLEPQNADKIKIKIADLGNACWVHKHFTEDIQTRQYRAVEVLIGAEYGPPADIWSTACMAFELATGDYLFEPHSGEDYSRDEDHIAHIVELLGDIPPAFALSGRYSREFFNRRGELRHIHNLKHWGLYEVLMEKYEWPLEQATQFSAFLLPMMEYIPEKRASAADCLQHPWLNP
Assay [9] concerns the target RAC-gamma serine/threonine-protein kinase (Homo sapiens) (UniProt Q9Y243). The settings on record: Compound concentration 1.0 uM.
Assay [10] has as its target Serine/threonine-protein kinase PLK1 (Homo sapiens) (UniProt P53350). The settings on record: Compound concentration 1.0 uM.
The target of assay [11] is Serine/threonine-protein kinase N2 (Homo sapiens) (UniProt Q16513). Particulars: Compound concentration 1.0 uM.
Assay [12] has as its target T1, Serine/threonine-protein kinase Sgk2 (Homo sapiens) (UniProt Q9HBY8).
T1 sequence (whole entry): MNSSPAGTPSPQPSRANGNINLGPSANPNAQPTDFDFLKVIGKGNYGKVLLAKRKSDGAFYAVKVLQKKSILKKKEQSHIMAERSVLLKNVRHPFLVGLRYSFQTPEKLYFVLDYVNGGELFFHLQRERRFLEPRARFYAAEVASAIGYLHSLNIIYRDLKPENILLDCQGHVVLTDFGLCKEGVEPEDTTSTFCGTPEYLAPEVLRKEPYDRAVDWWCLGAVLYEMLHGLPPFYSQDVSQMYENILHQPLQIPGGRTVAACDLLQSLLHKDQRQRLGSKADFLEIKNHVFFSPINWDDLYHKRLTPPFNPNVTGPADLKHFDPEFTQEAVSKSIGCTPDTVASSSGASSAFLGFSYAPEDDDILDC
Particulars: Compound concentration 1.0 uM.

The target in assay [13] is Serine/threonine-protein kinase 32A (Homo sapiens) (UniProt Q8WU08). The settings on record: Compound concentration 1.0 uM.
Sequence of Serine/threonine-protein kinase 32A (Homo sapiens) (Q8WU08 whole entry): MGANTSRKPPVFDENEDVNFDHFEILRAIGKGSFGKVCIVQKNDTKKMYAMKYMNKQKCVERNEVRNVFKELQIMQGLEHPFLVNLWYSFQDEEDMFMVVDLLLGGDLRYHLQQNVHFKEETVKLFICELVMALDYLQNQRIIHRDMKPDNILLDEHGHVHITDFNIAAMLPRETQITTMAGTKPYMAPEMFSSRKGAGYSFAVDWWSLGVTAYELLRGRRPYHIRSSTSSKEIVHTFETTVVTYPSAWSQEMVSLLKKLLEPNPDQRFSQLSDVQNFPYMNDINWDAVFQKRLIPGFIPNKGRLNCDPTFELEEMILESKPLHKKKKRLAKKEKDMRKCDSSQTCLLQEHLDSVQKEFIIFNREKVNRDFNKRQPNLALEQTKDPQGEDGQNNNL
Assay [14] has as its target Wee1-like protein kinase 2 (Homo sapiens) (UniProt P0C1S8). The settings on record: Compound concentration 1.0 uM.
Assay [15] concerns the target Serine/threonine-protein kinase WNK2 (Homo sapiens) (UniProt Q9Y3S1). The settings on record: Compound concentration 1.0 uM.
In assay [16] the target is Tyrosine-protein kinase Yes (Homo sapiens) (UniProt P07947). Particulars: Compound concentration 1.0 uM.
Sequence of Tyrosine-protein kinase Yes (Homo sapiens) (P07947 2-543 limits assumed): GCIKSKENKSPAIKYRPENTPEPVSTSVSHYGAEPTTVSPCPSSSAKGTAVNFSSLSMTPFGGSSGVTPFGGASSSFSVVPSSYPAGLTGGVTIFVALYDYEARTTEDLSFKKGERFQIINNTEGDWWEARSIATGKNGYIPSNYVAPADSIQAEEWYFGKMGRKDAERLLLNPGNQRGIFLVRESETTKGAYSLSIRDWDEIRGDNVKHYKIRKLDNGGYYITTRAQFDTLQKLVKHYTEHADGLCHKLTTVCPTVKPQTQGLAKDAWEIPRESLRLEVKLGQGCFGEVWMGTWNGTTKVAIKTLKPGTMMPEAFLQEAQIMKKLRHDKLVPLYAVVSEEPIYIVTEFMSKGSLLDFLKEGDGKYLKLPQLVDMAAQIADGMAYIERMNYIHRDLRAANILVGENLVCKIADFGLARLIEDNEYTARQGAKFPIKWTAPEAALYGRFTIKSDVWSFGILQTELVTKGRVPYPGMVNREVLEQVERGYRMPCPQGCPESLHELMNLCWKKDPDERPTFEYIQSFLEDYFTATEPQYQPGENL

Sequence of Sigma intracellular receptor 2 (Q5BJF2 whole entry): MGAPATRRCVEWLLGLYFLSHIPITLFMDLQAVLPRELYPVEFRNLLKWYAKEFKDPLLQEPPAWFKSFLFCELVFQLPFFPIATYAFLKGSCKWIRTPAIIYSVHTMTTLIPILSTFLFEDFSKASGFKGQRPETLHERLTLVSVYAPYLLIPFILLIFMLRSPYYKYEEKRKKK
Sequence of Insulin receptor-related protein (Homo sapiens) (P14616 27-742 limits assumed): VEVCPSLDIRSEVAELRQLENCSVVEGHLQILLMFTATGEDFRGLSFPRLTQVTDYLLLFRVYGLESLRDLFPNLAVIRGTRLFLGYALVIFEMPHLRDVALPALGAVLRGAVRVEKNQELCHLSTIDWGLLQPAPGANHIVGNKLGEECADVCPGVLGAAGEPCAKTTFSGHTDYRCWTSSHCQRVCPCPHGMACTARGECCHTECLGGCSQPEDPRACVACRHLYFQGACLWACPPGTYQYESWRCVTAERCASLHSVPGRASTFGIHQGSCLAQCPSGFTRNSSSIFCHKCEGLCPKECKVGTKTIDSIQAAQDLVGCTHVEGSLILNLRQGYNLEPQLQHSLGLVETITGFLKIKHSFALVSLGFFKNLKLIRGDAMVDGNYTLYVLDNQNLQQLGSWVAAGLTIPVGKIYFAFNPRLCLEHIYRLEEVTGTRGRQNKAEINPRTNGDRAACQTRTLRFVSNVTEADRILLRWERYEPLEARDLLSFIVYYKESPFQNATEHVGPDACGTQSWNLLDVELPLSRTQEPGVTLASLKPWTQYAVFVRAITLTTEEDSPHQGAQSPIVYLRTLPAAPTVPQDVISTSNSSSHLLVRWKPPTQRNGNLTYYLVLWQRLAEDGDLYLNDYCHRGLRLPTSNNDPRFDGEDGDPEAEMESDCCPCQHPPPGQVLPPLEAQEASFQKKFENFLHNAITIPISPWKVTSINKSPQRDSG
Sequence of Insulin receptor-related protein (Homo sapiens) (P14616 747-1297 limits assumed): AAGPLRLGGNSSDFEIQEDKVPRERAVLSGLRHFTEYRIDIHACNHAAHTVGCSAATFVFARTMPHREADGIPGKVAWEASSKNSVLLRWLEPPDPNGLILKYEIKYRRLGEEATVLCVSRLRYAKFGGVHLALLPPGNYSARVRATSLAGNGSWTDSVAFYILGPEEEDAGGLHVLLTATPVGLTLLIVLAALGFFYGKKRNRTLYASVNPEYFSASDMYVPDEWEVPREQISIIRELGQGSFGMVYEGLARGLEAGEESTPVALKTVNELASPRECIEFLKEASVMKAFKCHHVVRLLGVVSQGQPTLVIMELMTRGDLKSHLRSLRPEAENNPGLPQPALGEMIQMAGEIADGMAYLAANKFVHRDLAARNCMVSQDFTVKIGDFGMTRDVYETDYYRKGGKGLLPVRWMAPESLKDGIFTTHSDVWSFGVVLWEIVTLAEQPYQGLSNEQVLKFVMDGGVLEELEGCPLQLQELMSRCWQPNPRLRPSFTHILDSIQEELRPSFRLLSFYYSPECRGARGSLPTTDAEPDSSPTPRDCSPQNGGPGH
Sequence of 5'-AMP-activated protein kinase catalytic subunit alpha-2 (Homo sapiens) (P54646 whole entry, looked up): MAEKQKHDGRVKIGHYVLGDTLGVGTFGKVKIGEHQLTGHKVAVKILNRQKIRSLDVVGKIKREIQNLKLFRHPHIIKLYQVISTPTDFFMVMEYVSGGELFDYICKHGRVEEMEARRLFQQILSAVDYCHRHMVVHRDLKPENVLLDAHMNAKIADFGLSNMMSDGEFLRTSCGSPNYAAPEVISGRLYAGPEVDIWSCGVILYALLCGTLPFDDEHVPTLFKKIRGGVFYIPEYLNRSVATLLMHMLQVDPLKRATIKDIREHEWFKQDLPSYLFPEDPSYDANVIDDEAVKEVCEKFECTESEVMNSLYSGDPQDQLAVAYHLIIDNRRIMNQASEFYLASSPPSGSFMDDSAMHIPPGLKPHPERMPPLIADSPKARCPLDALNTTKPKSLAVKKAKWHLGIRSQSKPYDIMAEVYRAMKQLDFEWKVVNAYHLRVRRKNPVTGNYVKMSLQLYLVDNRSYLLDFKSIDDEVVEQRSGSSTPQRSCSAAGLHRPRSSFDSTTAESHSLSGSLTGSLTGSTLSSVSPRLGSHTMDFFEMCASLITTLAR

Turning to `Cc1nc(C2CCN(C(=O)c3ccc(OC(F)(F)F)cc3N)CC2)c2ncc(N3CCN(C)CC3)cc2n1` [BAY-693], the Ki in assay [1] came out at 4.9 µM.

For `CN1CCN(c2cnc3c(C4CCN(C(=O)c5ccc(OC(F)(F)F)cc5N)CC4)ncnc3c2)CC1` [BAY-885], the % residual kinase activity is 109% in assay [2]; 103% in assay [3]; 99% in assay [4]; 113% in assay [5]; 96% in assay [6]; 111% in assay [7]. Further, the % residual kinase activity is 78% in assay [8]; 113% in assay [9]; 115% in [10]; 104% in assay [11]; 89% in [12]; 100% in [13]. Moreover, the % residual kinase activity is 124% in assay [14], 107% in assay [15] and 99% in [16].
